Source: patent publication US7897602B2, “Indolinone compounds as kinase inhibitors” (Development Center for Biotechnology, priority 2009, dated 2011)

How the values were obtained:
Type in all cases: biochemical
c-Met kinase = target: T1, c-Met kinase (Homo sapiens, UniProt P08581); assay: c-Met kinase assay (33P incorporation into Poly(Glu-Tyr)); conditions: 500 nM test compound
T1 construct: recombinant N-terminal 6×His-tagged c-Met kinase domain construct expressed from baculovirus; 6xHis (N); made in house
T1 sequence (P08581 1078-1345 limits assumed): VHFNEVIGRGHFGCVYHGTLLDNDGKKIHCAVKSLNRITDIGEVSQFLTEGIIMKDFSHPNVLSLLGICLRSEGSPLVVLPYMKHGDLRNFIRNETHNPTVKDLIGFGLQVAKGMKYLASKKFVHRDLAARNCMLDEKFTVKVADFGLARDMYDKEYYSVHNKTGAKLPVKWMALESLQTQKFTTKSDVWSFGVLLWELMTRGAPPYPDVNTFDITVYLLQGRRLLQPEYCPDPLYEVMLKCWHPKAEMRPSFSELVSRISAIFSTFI
Experimental: Inhibition of c-Met kinase activity by compounds disclosed herein was quantified by measuring the amount of [^33P] incorporated into the substrate in the presence of a test compound. Briefly, a reaction mixture of 25 μL final volume containing 5 ng of c-Met kinase (obtained by purifying recombinant N-terminal 6×His-tagged c-Met kinase domain construct expressed from baculovirus), 1 μg of the substrate (Poly (Glu-Tyr, 4:1, Sigma)), kinase reaction buffer (20 mM MOPS pH 7.0, 1 mM EDTA, 5% glycerol, 0.01% Brij-35, 0.1% β-mercaptoethanol, 1 mg/mL BSA, 100 μM ATP, 0.1 μCi per well [^33P]-γ-ATP (2,500-3,000 Ci/mmol)), and a test compound (500 nM, diluted with 4% DMSO) or DMSO (as the control) was incubated at 30° C. for 30 minutes. The reaction was stopped by adding 5 μL of 3% phosphoric acid solution. The resultant reaction solution was then harvested onto a filter plate (UniFilter-96 GF/B, PerkinElmer), washed 20 times for 5 min with d.d. H2O, and followed by the addition of 30 μL of MicroScint™-20 Cocktail (PerkinElmer). The plate was then sealed and counted using a TopCount scintillation detector (PerkinElmer). The percentage of inhibition rate of the test compound was calculated by dividing the retained radioactivity of the test sample with the retained radioactivity of the control sample and shown in Table 3.

Aurora B kinase = target: T2, Aurora B kinase (Homo sapiens, UniProt Q96GD4); assay: Aurora B kinase assay ([γ-33P]ATP, CHOCKtide substrate); conditions: for inhibition at 1 µM: 1.0 μM test compound
T2 construct: purchased Cell signaling
T2 sequence (Q96GD4 whole entry): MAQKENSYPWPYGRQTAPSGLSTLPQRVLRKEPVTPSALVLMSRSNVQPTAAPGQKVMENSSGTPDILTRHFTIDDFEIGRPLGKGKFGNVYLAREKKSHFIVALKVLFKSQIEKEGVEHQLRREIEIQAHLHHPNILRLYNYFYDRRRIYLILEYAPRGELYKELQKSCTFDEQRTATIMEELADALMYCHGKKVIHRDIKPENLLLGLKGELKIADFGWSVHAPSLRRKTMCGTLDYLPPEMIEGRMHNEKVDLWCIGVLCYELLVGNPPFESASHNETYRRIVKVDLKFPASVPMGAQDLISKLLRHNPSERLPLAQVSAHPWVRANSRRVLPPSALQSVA
Experimental: (§1) Inhibition of Aurora Kinase by the compounds disclosed herein was determined by incubating Aurora kinase, substrate, and a test compound together for a period of time followed by quantifying the resultant phosphorylated product. Specifically, in a well of a 96-well round bottom plate, 25 μL of a reaction mixture containing (1) a test compound disclosed herein (diluted from 9 μM to the desired final concentration), [γ-33P]ATP/ATP mix (10 μM), CHOCKtide (1 μg, Genesis Biotech Inc.), and Aurora-A (1 ng, purchased from Upstate); or (2) a test compound disclosed herein (diluted from 9 μM to the desired final concentration), [γ-33P]ATP/ATP mix (40 μM), CHOCKtide (1 μg, Genesis Biotech Inc.), and Aurora-B (2.5 ng, purchased from Cell signaling); was prepared and incubated at 33° C. for 30 minutes. The reaction was then stopped by adding 5 μL of 3% phosphoric acid. The resultant solution (30 μL) was later harvested by a UniFilter Plate GF/B (PerkinElmer) followed by adding 30 μL of the scintillation cocktail (MicroScint 20, PerkinElmer) to the well. The radioactivity retained on the filter membrane was measured by a luminescence counter (PerkinElmer). IC50 value is defined as the concentration of the test compound which achieves a half-maximal inhibition of the kinase activity.

Aurora A kinase = target: T3, Aurora A kinase (Homo sapiens, UniProt O14965); assay: Aurora A kinase assay ([γ-33P]ATP, CHOCKtide substrate); conditions: for inhibition at 1 µM: 1.0 μM test compound
T3 construct: purchased Upstate
T3 sequence (O14965 1-403): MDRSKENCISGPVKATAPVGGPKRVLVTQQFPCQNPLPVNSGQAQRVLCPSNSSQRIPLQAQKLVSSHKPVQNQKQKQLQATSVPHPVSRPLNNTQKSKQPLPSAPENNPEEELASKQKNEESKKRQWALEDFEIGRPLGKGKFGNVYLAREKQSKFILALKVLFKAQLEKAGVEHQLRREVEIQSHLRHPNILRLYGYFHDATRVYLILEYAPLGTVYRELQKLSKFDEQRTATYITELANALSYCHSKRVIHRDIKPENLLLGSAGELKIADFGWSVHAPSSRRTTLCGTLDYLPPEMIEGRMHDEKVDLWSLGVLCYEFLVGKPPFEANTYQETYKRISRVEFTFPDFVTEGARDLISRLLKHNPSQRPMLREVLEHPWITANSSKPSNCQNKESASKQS
Experimental: as §1

Compound	inhibition at 0.5 µM (c-Met kinase) [%]	inhibition at 1 µM (Aurora B kinase) [%]	inhibition at 1 µM (Aurora A kinase) [%]	IC50 (Aurora B kinase) [nM]	IC50 (Aurora A kinase) [nM]
CCOC(=O)CCc1c(/C=C2\C(=O)Nc3ccc(NCc4ccc(F)cc4)cc32)[nH]c2c1C(=O)CCC2 [DCB-70176, (Z)-ethyl 3-(2-((5-(4-fluorobenzylamino)-2-oxoindolin-3-ylidene)methyl)-4-oxo-4,5,6,7-tetrahydro-1H-indol-3-yl)propanoate]	10.1	15.2	52.3		
CCOC(=O)CCc1c(/C=C2\C(=O)Nc3ccc(/N=C/c4ccncc4)cc32)[nH]c2c1C(=O)CCC2 [DCB-70177, ethyl 3-(4-oxo-2-((Z)-(2-oxo-5-((E)-pyridin-4-ylmethyleneamino)indolin-3-ylidene)methyl)-4,5,6,7-tetrahydro-1H-indol-3-yl)propanoate]	18.8	22.5	81.6		
CCOC(=O)CCc1c(/C=C2\C(=O)Nc3ccc(/N=C/c4ccc(F)c(C(F)(F)F)c4)cc32)[nH]c2c1C(=O)CCC2 [DCB-70178, ethyl 3-(2-((Z)-(5-((E)-4-fluoro-3-(trifluoromethyl)benzylideneamino)-2-oxoindolin-3-ylidene)methyl)-4-oxo-4,5,6,7-tetrahydro-1H-indol-3-yl)propanoate]	7.8	1.9	31.2		
CCOC(=O)CCc1c(/C=C2\C(=O)Nc3ccc(/N=C/c4ccsc4)cc32)[nH]c2c1C(=O)CCC2 [DCB-70180, ethyl 3-(4-oxo-2-((Z)-(2-oxo-5-((E)-thiophen-3-ylmethyleneamino)indolin-3-ylidene)methyl)-4,5,6,7-tetrahydro-1H-indol-3-yl)propanoate]	5.1	47.4	71.5	866	
CCOC(=O)CCc1c(/C=C2\C(=O)Nc3ccc(NC(=O)Nc4ccc(F)cc4F)cc32)[nH]c2c1C(=O)CCC2 [DCB-70183, (Z)-ethyl 3-(2-((5-(3-(2,4-difluorophenyl)ureido)-2-oxoindolin-3-ylidene)methyl)-4-oxo-4,5,6,7-tetrahydro-1H-indol-3-yl)propanoate]	1.5	13.9	13.2		
CCOC(=O)CCc1c(/C=C2\C(=O)Nc3ccc(NC(=O)Nc4ccc(Cl)cc4Cl)cc32)[nH]c2c1C(=O)CCC2 [DCB-70184, (Z)-ethyl 3-(2-((5-(3-(2,4-dichlorophenyl)ureido)-2-oxoindolin-3-ylidene)methyl)-4-oxo-4,5,6,7-tetrahydro-1H-indol-3-yl)propanoate]	8.7	6.8	6.6		
Nc1ccccc1NC(=O)CCc1c(/C=C2\C(=O)Nc3ccc(NS(=O)(=O)c4ccccc4)cc32)[nH]c2c1C(=O)CCC2 [DCB-70186, (Z)-N-(2-aminophenyl)-3-(4-oxo-2-((2-oxo-5-(phenylsulfonamido)indolin-3-ylidene)methyl)-4,5,6,7-tetrahydro-1H-indol-3-yl)propanamide]	9.6	47.4	66.1		
CC(=O)c1c(C)[nH]c(/C=C2\C(=O)Nc3ccc(F)cc32)c1CCC(=O)O [DCB-70187, (Z)-3-(4-acetyl-2-((5-fluoro-2-oxoindolin-3-ylidene)methyl)-5-methyl-1H-pyrrol-3-yl)propanoic acid]	8.8	17.5	62.8		
CC(=O)c1c(C)[nH]c(/C=C2\C(=O)Nc3ccc(S(=O)(=O)N4CCc5ccccc54)cc32)c1CCC(=O)O [DCB-70188, (Z)-3-(4-acetyl-2-((5-(indolin-1-ylsulfonyl)-2-oxoindolin-3-ylidene)methyl)-5-methyl-1H-pyrrol-3-yl)propanoic acid]	51.1	53.2	95.5	759	31.7
O=C(O)CCc1c(/C=C2\C(=O)Nc3ccc(NS(=O)(=O)c4cc(F)cc(F)c4)cc32)[nH]c2c1C(=O)CCC2 [DCB-70190, (Z)-3-(2-((5-(3,5-difluorophenylsulfonamido)-2-oxoindolin-3-ylidene)methyl)-4-oxo-4,5,6,7-tetrahydro-1H-indol-3-yl)propanoic acid]	10	80	97	246	31.5
O=C(O)CCc1c(/C=C2\C(=O)Nc3ccc(NS(=O)(=O)c4cc(Cl)cc(Cl)c4)cc32)[nH]c2c1C(=O)CCC2 [DCB-70194, (Z)-3-(2-((5-(3,5-dichlorophenylsulfonamido)-2-oxoindolin-3-ylidene)methyl)-4-oxo-4,5,6,7-tetrahydro-1H-indol-3-yl)propanoic acid]	12.9	41.7	85.3		151

Next, values leading:

inhibition at 0.5 µM (c-Met kinase) [%]	inhibition at 1 µM (Aurora B kinase) [%]	inhibition at 1 µM (Aurora A kinase) [%]	IC50 (Aurora B kinase) [nM]	IC50 (Aurora A kinase) [nM]	Compound
17.9	40.1	59.9			CCOC(=O)CCc1c(/C=C2\C(=O)Nc3ccc(NC(C)c4ccccc4)cc32)[nH]c2c1C(=O)CCC2 (centres unmarked) [DCB-70179, (Z)-ethyl 3-(4-oxo-2-((2-oxo-5-(1-phenylethylamino)indolin-3-ylidene)methyl)-4,5,6,7-tetrahydro-1H-indol-3-yl)propanoate]
14	84	91.4	177	77.9	CCOC(=O)CCc1c(/C=C2\C(=O)Nc3ccc(NS(=O)(=O)c4cc(F)cc(F)c4)cc32)[nH]c2c1C(=O)CCC2 [DCB-70189, (Z)-ethyl 3-(2-((5-(3,5-difluorophenylsulfonamido)-2-oxoindolin-3-ylidene)methyl)-4-oxo-4,5,6,7-tetrahydro-1H-indol-3-yl)propanoate]
19	21.2	20.4			CCOC(=O)CCc1c(/C=C2\C(=O)Nc3ccc(NS(=O)(=O)c4ccc5ccccc5c4)cc32)[nH]c2c1C(=O)CCC2 [DCB-70191, (Z)-ethyl 3-(2-((5-(naphthalene-2-sulfonamido)-2-oxoindolin-3-ylidene)methyl)-4-oxo-4,5,6,7-tetrahydro-1H-indol-3-yl)propanoate]
9.9	21	40.6			O=C(O)CCc1c(/C=C2\C(=O)Nc3ccc(NS(=O)(=O)c4ccc5ccccc5c4)cc32)[nH]c2c1C(=O)CCC2 [DCB-70192, (Z)-3-(2-((5-(naphthalene-2-sulfonamido)-2-oxoindolin-3-ylidene)methyl)-4-oxo-4,5,6,7-tetrahydro-1H-indol-3-yl)propanoic acid]
11.2	36.7	74.3			CCOC(=O)CCc1c(/C=C2\C(=O)Nc3ccc(NS(=O)(=O)c4cc(Cl)cc(Cl)c4)cc32)[nH]c2c1C(=O)CCC2 [DCB-70193, (Z)-ethyl 3-(2-((5-(3,5-dichlorophenylsulfonamido)-2-oxoindolin-3-ylidene)methyl)-4-oxo-4,5,6,7-tetrahydro-1H-indol-3-yl)propanoate]
15.3	47.5	73.1			CCOC(=O)CCc1c(/C=C2\C(=O)Nc3ccc(NS(=O)(=O)c4cccc(OC)c4)cc32)[nH]c2c1C(=O)CCC2 [DCB-70195, (Z)-ethyl 3-(2-((5-(3-methoxyphenylsulfonamido)-2-oxoindolin-3-ylidene)methyl)-4-oxo-4,5,6,7-tetrahydro-1H-indol-3-yl)propanoate]
